From patent publication US7018994B2, “17α-ALKYL-17β-OXY-ESTRATRIENES AND INTERMEDIATE PRODUCTS FOR THEIR PRODUCTION, USE OF THE 17α-ALKYL-17β-OXY-ESTRATRIENES FOR THE PRODUCTION OF PHARMACEUTICAL AGENTS AS WELL AS PHARMACEUTICAL PREPARATIONS” (Schering AG, priority 2001, dated 2006) come the findings set out here.

One series concerns uterus growth. Nature of the series: Uterus growth test on infant rats (test on antiestrogenic action, antiuterotropic action). The class given is in vivo, rat. The following applies: infant female rats, inhibition relative to EB control; for Antiuterotropic Action % Inhib. p.o.: 0.3 (mg/kg of body weight) p.o. once daily for three days with 0.5 μg estradiolbenzoate s.c.
In a further series the target is T1, 17β-HSD2 (Homo sapiens, UniProt P37059).
T1 construct: Microsome solution: intestinal microsomes (In Vitro Technologies); protein content: 24 mg/ml; tissue In Vitro Technologies; host or cells: intestinal microsomes
T1 sequence (P37059 1-387): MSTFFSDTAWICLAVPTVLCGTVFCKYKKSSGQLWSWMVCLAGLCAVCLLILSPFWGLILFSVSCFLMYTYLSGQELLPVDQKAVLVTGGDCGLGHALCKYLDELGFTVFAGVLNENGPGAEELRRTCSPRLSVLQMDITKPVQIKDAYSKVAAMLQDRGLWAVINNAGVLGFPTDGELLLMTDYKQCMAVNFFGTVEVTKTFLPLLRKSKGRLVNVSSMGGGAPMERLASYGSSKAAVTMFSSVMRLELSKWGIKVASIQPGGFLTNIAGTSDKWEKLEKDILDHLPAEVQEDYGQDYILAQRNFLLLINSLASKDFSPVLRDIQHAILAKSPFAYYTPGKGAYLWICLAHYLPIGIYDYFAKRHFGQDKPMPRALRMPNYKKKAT
Nature of the series: Determination of metabolic stability: in-vitro 17β-HSD test, intestinal microsomes. The class given is in vitro ADME. The note with it: LC/MS/MS; for metabolic stability in intestinal microsomes: 37° C., 0-60 minutes, 0.3 μmol in the test batch. The text has this: Determination of metabolic stability: in-vitro 17β-HSD test
17β-HSD2 mediates the intestinal enzymatic dehydrogenization of an OH group in 17-position of the sterane skeleton into a ketone group.
For this test, the following materials are used:
Na-Phosphate buffer: 100 mmol of Na2HPO4×2H2O and 100 mmol of NaH2PO4×H2O
Test substance solution of
11β-Fluoro-7α-{5-[methyl(8,8,9,9,9-pentafluorononyl)amino]pentyl}-17α-methylestra-1,3,5(10)-triene-3,17β-diol (compound 1, as a representative of the compounds of general formula I) and
11β-Fluoro-7α-{5-[methyl(8,8,9,9,9-pentafluorononyl)amino]pentyl-estra-1,3,5(10)-triene-3,17β-diol (compound 2): […] in MeOH (0.3 μmol in the test batch).
Cofactor solution: 2 ml of glucose-6-phosphate (160 mmol)/MgCl2 (80 mmol) mixture is added to 400 μl of a glucose-6-phosphate-dehydrogenase solution, and then 15.6 mg of NADP and 13.4 mg of NAD are added.
Microsome solution: intestinal microsomes (In Vitro Technologies; protein content: 24 mg/ml; CYP450 content: 0.058 nmol/mg of protein)
In the water bath, it is thawed at 37° C. (˜60 seconds) and diluted with Na-phosphate buffer to a concentration of 5 mg/ml of protein.
In each case, 170 μl/well of the buffer and 5 μl/well of the test substance solutions are introduced into the corresponding wells, whereby double values are applied for each measuring time (0, 10, 20, 30, 45 and 60 minutes).
In each case, 250 μl of ice-cold MeOH is added to the 0-minute values. Then, 25 μl of microsome solution and 50 μl of cofactor solution are added immediately to all wells. The samples of the 0-minute values are stored without incubation at ˜−20° C. for about 24 hours. The other samples are incubated in each case for 10, 20, 30, 45 and 60 minutes at 37° C., and the dehydrogenation reaction is stopped after these times by the addition of 250 μl of ice-cold MeOH in each case. The samples are stored until measurement per LC/MS/MS at ˜−20° C., for about 24 hours and centrifuged at 3000 rpm before analysis, whereby the supernatant is measured.
(§1) The concentrations of the test substances measured per LC/MS/MS and the resulting 17 ketone product are reproduced in FIGS. 2a-2f.

Series [1] in a line: Metabolic stability in liver microsomes. Type of series: in vitro ADME. The note with it: LC/MS/MS.
Description: as §1
Background: Microsomes from liver hold many membrane-bound enzymes, among them those of drug oxidation.

Regarding “11β-Fluoro-7α-{5-[methyl(7,7,8,8,9,9,9-heptafluorononyl)amino]pentyl}-17α-methylestra-1,3,5(10)-triene-3,17β-diol [No. 8]”, in the series on uterus growth, the “Antiuterotropic Action % Inhib. p.o.” value was 94%.

In the case of “11β-Fluoro-7α-{5-[methyl(7,7,8,8,9,9,10,10,10-nonafluorodecyl)amino]pentyl}-17α-methylestra-1,3,5 (10)-triene-3,17β-diol [No. 7]”, the “Antiuterotropic Action % Inhib. s.c.” value in the series on uterus growth (0.03 (mg/kg of body weight) s.c., once daily for three days with 0.5 μg estradiolbenzoate s.c.) is 59%. With “11β-Fluoro-7α-{5-[methyl(8,8,9,9,9-pentafluorononyl)amino]pentyl}-17α-methylestra-1,3,5(10)-triene-3,17β-diol [compound 1]”, on 17β-HSD2, the “metabolic stability in intestinal microsomes” value is listed as “metabolically stable” and the “formation of the 17-ketone product of the 17βHSD-reaction” value (shortened to “formation”) is listed as “does not occur in any of the tissues”. In series [1], the “formation” value was “does not occur in any of the tissues” and the “metabolic stability in liver microsomes” value is reported as “not in liver microsomes”. In the case of `CN(CCCCCCCC(F)(F)C(F)(F)F)CCCCC[C@@H]1Cc2cc(O)ccc2[C@@H]2[C@@H]1[C@@H]1CC[C@H](O)[C@@]1(C)C[C@@H]2F` [compound 2, reference compound], on 17β-HSD2, the “metabolic stability in intestinal microsomes” value is reported as “degraded” and the “formation” value was “the corresponding 17-ketone is produced”.

In the case of `CN(CCCCCCCC(F)(F)C(F)(F)F)CCCCC[C@@H]1Cc2cc(O)ccc2[C@@H]2[C@@H]1[C@@H]1CCC(=O)[C@@]1(C)C[C@@H]2F` [compound 3, 11β-fluoro-7α-{5-[methyl(8,8,9,9,9-pentafluorononyl)amino]pentyl}-estra-1,3,5(10)-trien-3-ol-17-one], the “Antiuterotropic Action % Inhib. p.o.” value with uterus growth worked out at 76%.
